Holding throughout (format): biochemical
Experiment [1] concerns the target T1, SIRT1 (Homo sapiens, UniProt Q96EB6).
T1 sequence (Q96EB6 1-747): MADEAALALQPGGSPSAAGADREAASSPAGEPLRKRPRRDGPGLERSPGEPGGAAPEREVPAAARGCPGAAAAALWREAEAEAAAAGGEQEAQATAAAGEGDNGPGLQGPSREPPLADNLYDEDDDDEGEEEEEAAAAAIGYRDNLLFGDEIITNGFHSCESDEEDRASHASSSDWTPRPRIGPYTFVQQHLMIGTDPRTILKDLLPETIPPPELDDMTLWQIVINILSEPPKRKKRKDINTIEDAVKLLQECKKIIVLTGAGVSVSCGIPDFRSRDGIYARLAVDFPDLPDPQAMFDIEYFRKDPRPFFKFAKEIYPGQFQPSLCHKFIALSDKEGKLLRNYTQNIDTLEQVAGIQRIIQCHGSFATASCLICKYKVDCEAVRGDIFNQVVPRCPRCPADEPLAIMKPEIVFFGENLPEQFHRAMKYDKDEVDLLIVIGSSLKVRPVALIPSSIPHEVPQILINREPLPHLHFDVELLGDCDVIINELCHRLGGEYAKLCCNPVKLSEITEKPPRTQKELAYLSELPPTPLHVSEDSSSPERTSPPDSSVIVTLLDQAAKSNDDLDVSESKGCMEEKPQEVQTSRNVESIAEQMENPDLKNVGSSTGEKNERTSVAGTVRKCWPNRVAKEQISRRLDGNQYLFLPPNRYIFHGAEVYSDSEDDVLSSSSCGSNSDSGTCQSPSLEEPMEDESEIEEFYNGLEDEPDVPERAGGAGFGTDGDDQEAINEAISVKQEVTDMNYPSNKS
The experiment is described as follows: Fluorescence polarization assay of SIRT1 activity (p53-based peptide substrate). To be noted: activation of SIRT1; peptide 1 for Compounds 1-18, peptide 2 for Compounds 19-164; read-out: ED50 FP. The procedure: A fluorescence polarization or mass spectrometry based assay was used to identify modulators of SIRT1 activity. The same assay may be used to identify modulators of any sirtuin protein. The fluorescence polarization assays utilizes one of two different peptides based on a fragment of p53, a known sirtuin deacetylation target. Compounds 1-18 were tested using a substrate containing peptide 1 having 20 amino acid residues as follows: Ac-EE-K(biotin)-[…](Ac)NleSTEG-K(M121)-EE-NH2 (SEQ ID NO: 1) wherein K(biotin) is a biotinolated lysine residue, K(Ac) is an acetylated lysine residue, Nle is norleucine and K(MR121) is a lysine residue modified by an MR121 fluorophore. This peptide is labeled with the fluorophore MR121 (excitation 635 nm/emission 680 nm) at the C-termini and biotin at the N-termini. The sequence of the peptide substrates are based on p53 with several modifications. In particular, all arginine and […] residues other than the acetylated lysine residues have replaced with serine so that the peptides are not susceptible to trypsin cleavage in the absence of deacetylation. In addition, the methionine residues naturally present in the sequences have been replaced with the norleucine because the methionine may be susceptible to oxidation during synthesis and purification. […] The peptide is labeled with the fluorophore 5TMR (excitation 540 nm/emission 580 nm) at the C-terminus. The sequence of the peptide substrate is also based on p53 with several modifications. In addition, the methionine residue naturally present in the sequence was replaced with the norleucine because the methionine may be susceptible to oxidation during synthesis and purification.
The peptide substrates were exposed to a sirtuin protein in the presence of NAD^+ to allow deacetylation of the substrate and render it sensitive to cleavage by trypsin. Trypsin was then added and the reaction was carried to completion (i.e., the deacetylated substrate is cleaved) releasing the MR121 or 5TMR fragment. Streptavidin is then added to the reaction where it can bind both the uncleaved substrate (i.e., any remaining acetylated substrate) and the non-fluorescent portion of the cleaved peptide substrate (i.e., the biotin containing fragment). The fluorescence polarization signal observed for the full length peptide substrates bound to streptavidin was higher than the fluorescence polarization signal observed for the released MR121 or 5TMR C-terminal fragment. In this way, the fluorescence polarization obtained is inversely proportional to the level of deacetylation (e.g., the signal is inversely proportional to the activity of the sirtuin protein). Results were read on a microplate fluorescence polarization reader (Molecular Devices Spectramax MD) with appropriate excitation and emission filters.
The fluorescence polarization assays using peptide 1 is conducted as follows: 0.5 μM peptide substrate and 150 μM βNAD^+ is incubated with 0.1 μg/mL of SIRT1 for 60 minutes at 37° C. in a reaction buffer (25 mM Tris-acetate pH8, 137 mM Na—Ac, 2.7 mM K—Ac, 1 mM Mg—Ac, 0.05% Tween-20, 0.1% Pluronic F127, 10 mM CaCl2, 5 mM DTT, 0.025% BSA, 0.15 mM Nicotinamide). Test compounds 1-18 were solubilized in DMSO and added to the reaction at 11 concentrations ranging from 0.7 μM to 100 μM.
Fluorescence polarization assays using peptide 2 is conducted as follows: 0.5 μM peptide substrate and 120 μM βNAD^+ were incubated with 3 nM SIRT1 for 20 minutes at 25° C. in a reaction buffer (25 mM Tris-acetate pH8, 137 mM Na—Ac, 2.7 mM K—Ac, 1 mM Mg—Ac, 0.05% Tween-20, 0.1% Pluronic F127, 10 mM CaCl2, 5 mM DTT, 0.025% BSA). Test compounds 19-56 were solubilized in DMSO and added to the reaction at 10 concentrations ranging from 300 μM to 0.15 μM in three-fold dilutions.
After the incubation with SIRT1, nicotinamide was added to the reaction to a final concentration of 3 mM to stop the deacetylation reaction and 0.5 μg/mL of trypsin was added to cleave the deacetylated substrate. […]

Experiment [2] deals with T1, SIRT1. The experiment is described as follows: SIRT1 fluorescence polarization or mass spectrometry based assay (format not given). To be noted: inhibition of SIRT1 (Table 5). Background: Polarisation of emitted light reports the rotation of a fluorescent probe.
In experiment [3] the target is T1, SIRT1. The experiment in a line: Mass spectrometry based assay of SIRT1 activity. The following applies: for EC50: activation of SIRT1, read-out: ED50 MS. Details: key to FOLD ACTIVATION MS: A: Fold activation >250%; B: Fold Activation <250%; C: no fold activation. The procedure: The mass spectrometry based assay utilizes a peptide having 20 amino acid residues as follows: […] The sequence of the peptide substrate is based on p53 with several modifications. […] Test compounds may be added to the reaction as described above. […] After the 25 minute incubation with SIRT1, 10 μL of 10% formic acid is added to stop the reaction. Reactions are sealed and frozen for later mass spec analysis. Determination of the mass of the substrate peptide allows for precise determination of the degree of acetylation (i.e. starting material) as compared to deacetylated peptide (product). […] This timepoint is the same as that used for test compounds and, within the linear range, the endpoint represents a change in velocity. For each of the above assays, SIRT1 protein was expressed and purified as follows. The SirT1 gene was cloned into a T7-promoter containing vector and transformed into BL21(DE3). The protein was expressed by induction with 1 mM IPTG as an N-terminal His-tag fusion protein at 18° C. overnight and harvested at 30,000×g. […] The protein was purified over a Ni-NTA column (Amersham) and fractions containing pure protein were pooled, concentrated and run over a sizing column (Sephadex S200 26/60 global). The peak containing soluble protein was collected and run on an Ion-exchange column (MonoQ). […] This protein was concentrated and dialyzed against dialysis buffer (20 mM Tris-HCl, 2 mM TCEP) overnight. The protein was aliquoted and frozen at −80° C. until further use.

The source of these data is patent publication US20090163476A1, “N-Phenyl Benzamide Derivatives as Sirtuin Modulators” (Sirtris Pharmaceuticals, Inc., priority 2005, published 2009).

Where only a bound is given, the exact number is not on record here.

Take `CC(=O)Oc1cc(C(=O)Nc2ccccc2C(=O)O)cc(C(=O)Nc2ccccc2C(=O)O)c1` [Compound 1]: on SIRT1 [1], the EC50 is less than 50 µM.
For `O=C(Nc1cc(NC(=O)c2ccccc2)c(C(=O)O)cc1C(=O)O)c1ccccc1` [Compound 2], the EC50 on SIRT1 [1] was greater than 150 µM.
Same read-out and setting: the result for `O=C(Nc1ccccc1C(=O)O)c1cccc(C(=O)Nc2ccccc2C(=O)O)c1` [Compound 3] reads 51 to 100 µM; that for `COc1cc(NC(=O)c2cccc(Br)c2)c(C(=O)O)cc1OC` [Compound 5], 51 to 100 µM; that for `COc1ccccc1C(=O)Nc1cccc(NC(=O)c2ccco2)c1` [Compound 6], greater than 150 µM.
Take `COc1ccccc1C(=O)Nc1cccc(-c2nc3ncccc3o2)c1` [Compound 7]: the EC50 at SIRT1 [1] is less than 50 µM.
Same read-out and setting: the result for `CCOc1cccc(C(=O)Nc2cc(OC)c(OC)cc2C(=O)O)c1` [Compound 8] reads 51 to 100 µM.
Take `CC1COCC(C)N1c1ccc(C(=O)NCc2cccc(CN)c2)cc1NC(=O)c1ccc2ccccc2c1` (stereo not shown) [Compound 9]: the EC50 at SIRT1 [1] was in the range of 101 to 150 µM.
On the same count and under the same terms, the result for `COc1cc(C(=O)Nc2cc(Cl)ccc2C(=O)O)ccc1OC(C)=O` [Compound 10] reads greater than 150 µM.
Compound `O=C(O)c1ccc(NC(=O)c2cccc(NC(=O)c3cccs3)c2)cc1` [Compound 13] displayed an IC50 at SIRT1 [2] of less than 50 µM.
For the compound `CC(=O)Oc1ccc(C(=O)Nc2ccc(C(=O)O)cc2NC(=O)c2ccc(OC(C)=O)cc2)cc1` [Compound 14], the 50% inhibitory concentration (IC50) against SIRT1 [2] lay within 51 to 100 µM.
As for `O=C(Nc1cccc(-c2nc3ncccc3o2)c1)c1ccc(N2CCOCC2)cc1` [Compound 38], the “FOLD ACTIVATION MS” value at SIRT1 [3] was “C”. Besides, the EC50 at SIRT1 [3] and on SIRT1 [1] was greater than 150 µM throughout.
With `O=C(Nc1cccc(-c2nc3ncccc3o2)c1)c1ccc(N2CCCCC2)cc1` [Compound 39], on SIRT1 [3], the “FOLD ACTIVATION MS” value is recorded as “C” and the EC50 is greater than 150 µM. Also, the EC50 on SIRT1 [1] was greater than 150 µM.
For the compound `COc1ccc(C(=O)Nc2cccc(-c3nc4ncccc4o3)c2)c(C(F)(F)F)c1` [Compound 40], on SIRT1 [3], the “FOLD ACTIVATION MS” value is listed as “C” and the EC50 is greater than 150 µM. Besides, the EC50 at SIRT1 [1] was greater than 150 µM.
Take `COc1ccc(C(=O)Nc2cccc(-c3nc4ncccc4o3)c2)cc1C(F)(F)F` [Compound 41]: at SIRT1 [3], the “FOLD ACTIVATION MS” value is given as “C” and the EC50 was greater than 150 µM. The EC50 at SIRT1 [1] was greater than 150 µM.
Consider `CN(C)c1cccc(C(=O)Nc2cccc(-c3nc4ncccc4o3)c2)c1` [Compound 42], for which, on SIRT1 [3], the “FOLD ACTIVATION MS” value was “B (Fold Activation <250%)” and the EC50 is less than 50 µM. Moreover, on SIRT1 [1], the EC50 was less than 50 µM.
For the compound `CN(C)c1ccc(C(=O)Nc2cccc(-c3nc4ncccc4o3)c2)cc1` [Compound 43], on SIRT1 [3], the “FOLD ACTIVATION MS” value is reported as “B (Fold Activation <250%)”. The EC50 on SIRT1 [3] and on SIRT1 [1] was less than 50 µM in each case.
`N#Cc1cccc(C(=O)Nc2cccc(-c3nc4ncccc4o3)c2)c1` [Compound 44]: on SIRT1 [2], the IC50 was greater than 150 µM.
In the case of `N#Cc1ccc(C(=O)Nc2cccc(-c3nc4ncccc4o3)c2)cc1` [Compound 45], on SIRT1 [3], the “FOLD ACTIVATION MS” value is given as “C” and the EC50 was greater than 150 µM. Moreover, the EC50 at SIRT1 [1] is greater than 150 µM.
With `COc1cccc(OC)c1C(=O)Nc1cccc(-c2nc3ncccc3o2)c1` [Compound 46], at SIRT1 [3], the “FOLD ACTIVATION MS” value is recorded as “C” and the EC50 was greater than 150 µM. For the same compound, on SIRT1 [1], the EC50 was greater than 150 µM.
For the compound `O=C(Nc1cccc(-c2nc3ncccc3o2)c1)c1ccc(N2CCCC2)cc1` [Compound 47], the IC50 on SIRT1 [2] is 51 to 100 µM.
As for `COc1cc(OC)c(C(=O)Nc2cccc(-c3nc4ncccc4o3)c2)c(OC)c1` [Compound 48], the “FOLD ACTIVATION MS” value at SIRT1 [3] was “C”. Also, the EC50 at SIRT1 [3] and at SIRT1 [1] was greater than 150 µM in each case.
Turning to `COc1cccc(C(=O)Nc2cccc(-c3nc4ncccc4o3)c2)c1C` [Compound 49], at SIRT1 [3], the “FOLD ACTIVATION MS” value is on record as “B (Fold Activation <250%)” and the EC50 was less than 50 µM. The EC50 on SIRT1 [1] was greater than 150 µM.
Turning to `COc1cc(C)ccc1C(=O)Nc1cccc(-c2nc3ncccc3o2)c1` [Compound 51], the “FOLD ACTIVATION MS” value on SIRT1 [3] is reported as “B (Fold Activation <250%)”. Besides, the EC50 at SIRT1 [3] and on SIRT1 [1] was less than 50 µM each time.
On to `COc1ccc(C(=O)Nc2cccc(-c3nc4ncccc4o3)c2)cc1OC` [Compound 52], for which, on SIRT1 [3], the “FOLD ACTIVATION MS” value is “B (Fold Activation <250%)” and the EC50 is less than 50 µM. In addition, the EC50 on SIRT1 [1] was less than 50 µM.
On to `COc1ccc(C(=O)Nc2cccc(-c3nc4ncccc4o3)c2)c(OC)c1OC` [Compound 53], for which, at SIRT1 [3], the “FOLD ACTIVATION MS” value was “C” and the EC50 was greater than 150 µM. Also, the EC50 at SIRT1 [1] is greater than 150 µM.
Take `COc1ccc(C(=O)Nc2cccc(-c3nc4ncccc4o3)c2)c(OC)c1` [Compound 55]: the “FOLD ACTIVATION MS” value on SIRT1 [3] is “B (Fold Activation <250%)”. The EC50 at SIRT1 [3] and at SIRT1 [1] was less than 50 µM in each case.
Turning to `O=C(Nc1cccc(-c2nc3ncccc3o2)c1)c1ccccc1` [Compound 56], at SIRT1 [3], the “FOLD ACTIVATION MS” value is “B (Fold Activation <250%)” and the EC50 is less than 50 µM. In addition, the EC50 on SIRT1 [1] is greater than 150 µM.

Broadly, the IC50 is the concentration needed to halve the response being measured.
